Ends that are not written are not given here.
Key:
[1] = system: S. pneumoniae strain WU2 adhesion to A549 cells; assay: Inhibition of adhesion of S. pneumoniae strain WU2 to A549 cells; format: cell-based, Streptococcus pneumoniae; details: CFU counting
Experimental: (§1) A549 and D562 cells were cultured on fibronectin-coated 96-well plates (Fig 2 and S2 Fig) or on Ibidi 8 well chambers (Ibidi GmbH, Planegg/Martinsried, Germany; Figs 3, 4 and 5) or on 96-well plates without fibronectin coating (Figs 7 and 8 and S3 Fig), as previously described. Briefly, the cells were seeded at 5 × 10^4 cells/well in DMEM supplemented with 10% fetal calf serum (FCS) (without antibiotics). Twenty four hours later, the cells (~10^5 cells/well) were blocked with 0.5% gelatin for 1 h. rPtsA (0–500 nM) was then added to the cultured cells for 1 h of incubation. Excess protein was removed, and S. pneumoniae bacteria at a MOI of ~10:1 were added for additional 1 h of incubation. The inoculum size was verified in each experiment. […] Following the incubation, excess bacteria were removed, and cells were detached with trypsin and plated onto blood agar plates for counting. All the inhibitors were used at concentrations below their toxic concentrations either to the bacteria or to the cells. Keyhole limpet hemocyanin (KLH) protein was used as a negative control. Experiments were conducted in triplicates and repeated on 3 different occasions.
(§2) Inhibition of adhesion to A549 cells by anti-rPtsA antiserum, phages or peptides was performed as previously described. Briefly, bacteria were incubated for 1 h with rabbit anti-rPtsA antiserum, the phages, or the selected peptides. The bacteria were then added to the cultured human cells for an additional hour. Following this incubation, excess bacteria were removed, and the procedure was continued as described above. All the inhibitors were used at concentrations below their toxic concentrations either to the bacteria or to the cells. Negative controls included pre-immune serum, phage carrying no insert or a non-inhibitory insert, and a scrambled peptide. Each experiment was performed in triplicates and repeated on 3 different occasions and a representative experiment is presented.

rPtsA = rPtsA (Streptococcus pneumoniae serotype 4, UniProt A0A0H2UQ90); assay: biochemical; format: binding
Experimental: In all cases, 16 serial dilutions of each putative receptor-derived peptide (~90 nM–3.175 mM) were mixed with a constant concentration of 335 nM labeled rPtsA protein. The normalized change in the fluorescence of the labeled rPtsA protein was plotted against the peptide concentration, and a fit was computed by the NTP program. The experiments were performed in triplicate.
rPtsA labeled with fluorescent NT-495 dye at a constant concentration of 335 nM was mixed with sixteen serial dilutions (~90 nM–3.175 mM) of peptides derived from PCDH19, MMRN1, Eps1, Int β and BMPER. Contactin 4, was used as a negative control. MST analysis was performed using Monolith NT.115 (NanoTemper Technologies GmbH, München, Germany). The normalized change in the fluorescence of bound and unbound labeled rPtsA (ΔF) is indicative of the peptide binding. Plotting ΔF vs. peptide concentration facilitated the generation the dissociation curves, computed by the NTP program. In this way the Kd, reflecting the affinity of each of the peptides for rPtsA, was obtained. […] Each experiment was performed in triplicate.

[2] = system: S. pneumoniae adhesion to A549 cells; assay: Inhibition of adhesion of S. pneumoniae to A549 cells, strain not stated (scrambled peptide control); format: cell-based, Streptococcus pneumoniae; details: bacteria treated 1 h with peptide, added to A549 cells for 1 h; CFU counting; strain not printed (Fig 8K)
Experimental: as §1
Fig 8 Inhibition of adhesion of S. pneumoniae cells to A549 cells by target-derived peptides. […]

S. pneumoniae strain WU2 = assay: Nasopharyngeal and lung colonization of CBA/N^xid mice after intranasal inoculation of peptide-pretreated strain WU2; format: in vivo, Streptococcus pneumoniae
Experimental: BALB/c (highly resistant to S. pneumonia) or CBA/N^xid (highly susceptible to S. pneumoniae) mice strains were immunized subcutaneously (SC) with 25 μg of rPtsA emulsified with complete Freund’s adjuvant (CFA) and subsequently boosted (days 14 and 28) with incomplete Freund’s adjuvant (IFA). On day 42, the BALB/c and CBA/N^xid mice were challenged intranasally (IN), under deep anesthesia using Isoflurane (Piramal Critical Care Inc., PA, USA), with a sublethal dose of strain WU2 (5 × 10^7 and 5 ×x 10^5, respectively). Mice were humanely sacrificed 3 and 24 h later by CO2 asphyxiation, as recommended by the AVMA Guidelines for Euthanasia in Animals: 2013 Edition (https://www.avma.org/KB/Policies/Documents/euthanasia.pdf). Strain WU2 cells were pretreated with the respective peptides and then inoculated IN into adult CBA/N^xid mice. Mice were euthanized 3, 24 or 48 h later with CO2. The nasopharynx and right lobe lung were excised, homogenized and plated onto blood agar plates for bacterial colony counting. For survival experiments, after an immunization regime similar to that described above, BALB/c or CBA/N^xid mice were challenged with a lethal dose of strain WU2 either IN (10^8 CFU and 10^6 CFU, respectively) or intravenously (10^4 CFU). […] The following criteria were considered sufficient evidence of distress to warrant such intervention in order to minimize pain and suffering of the animals: severe weight loss (20% body weight); reluctance or inability to move freely; appearance of bristle fur; social disengagement; refusal or inability to eat or drink. No analgesic treatment was provided, as such treatment may alter the immune response and may independently affect the outcome of the experiments.
Strain WU2 cells were pretreated with Eps 1, BMPER and PCDH19 peptides and then inoculated IN into adult CBA/N^xid mice. Mice were euthanized 3, 24 or 48 h later. The nasopharynx and lungs were excised, homogenized and plated onto blood agar plates for counting. As a control, another group of mice was injected with bacteria treated ex vivo for 1 h with PBS alone.
Fig 9 Effects of target-derived peptides on nasopharyngeal and lung colonization and survival in mice. Strain WU2 cells were pretreated with peptide and then inoculated IN into adult CBA/N^xid mice. As a control, another group of mice was injected with bacteria treated ex vivo for 1 h with PBS alone. Mice were euthanized 3, 24 or 48 h later. The nasopharynx and lungs were excised, homogenized and plated onto blood agar plates for counting. […]

[3] = system: S. pneumoniae strain 3.8DW adhesion to A549 cells; assay: Inhibition of adhesion of S. pneumoniae strain 3.8DW to A549 cells; format: cell-based, Streptococcus pneumoniae; details: bacteria treated 1 h with peptide, added to A549 cells (plates without fibronectin coating) for 1 h; CFU counting
Experimental: as §1, §2

[4] = system: S. pneumoniae strain D39 adhesion to A549 cells; assay: Inhibition of adhesion of S. pneumoniae strain D39 to A549 cells; format: cell-based, Streptococcus pneumoniae; details: bacteria treated 1 h with peptide, added to A549 cells (plates without fibronectin coating) for 1 h; CFU counting
Experimental: as §1
(§3) Inhibition of adhesion to A549 cells by anti-rPtsA antiserum, phages or peptides was performed as previously described. Briefly, bacteria were incubated for 1 h with rabbit anti-rPtsA antiserum, the phages, or the selected peptides. […]

[5] = system: S. pneumoniae strain WU2 adhesion to Detroit 562 cells; assay: Inhibition of adhesion of S. pneumoniae strain WU2 to Detroit 562 cells; format: cell-based, Streptococcus pneumoniae; details: bacteria treated 1 h with peptide, added to Detroit 562 cells for 2 h; CFU counting; 3–6 replicates
[6] = system: S. pneumoniae strain R6 adhesion to A549 cells; assay: Inhibition of adhesion of S. pneumoniae strain R6 to A549 cells; format: cell-based, Streptococcus pneumoniae; details: bacteria treated 1 h with peptide, added to A549 cells (plates without fibronectin coating) for 1 h; CFU counting
Experimental: as §1, §3

[7] = biological target: HAT-tagged recombinant phosphoenolpyruvate protein phosphotransferase (rPtsA) (Streptococcus pneumoniae (serotype 3 strain WU2)); assay: MST; labeled rPtsA (NT-495 dye) constant at 335 nM; 16 serial dilutions of each peptide (~90 nM–3.175 mM); Monolith NT.115; triplicate
[8] = bacteria incubated 1 h with antiserum or phage, then added to gelatin-blocked A549 cells (fibronectin-coated plates) for 1 h
[9] = WU2 pretreated with Eps 1 (14.7 μM), versus sham-treated (PBS) bacteria
[10] = WU2 pretreated with peptide (Eps 1 14.7 μM; BMPER 7 and 14 μM; PCDH19 14.7 and 27.4 μM), versus sham-treated bacteria
[11] = bacteria treated 1 h with peptide, added to A549 cells (96-well plates without fibronectin coating) for 1 h

ADDESPEMKPGX [phage D8]
Inhibition of adhesion of strain WU2 to A549 cells [1, 8]: inhibited

ADGGVPV [phage H10]
Inhibition of adhesion of strain WU2 to A549 cells [1, 8]: inhibited
Reduction in adhesion of strain WU2 to A549 cells ([1]; phage incubated with strain WU2 for 1 h, added to A549 cells, in comparison to adhesion of bacteria without inhibitors): 75%

AVVVNDANRTRK [phage D3]
Inhibition of adhesion of strain WU2 to A549 cells [1, 8]: inhibited

DQRPAXRRMYRA [phage D10]
Inhibition of adhesion of strain WU2 to A549 cells [1, 8]: inhibited

DQVARIPVIRRV [Intβ4]
Kd (rPtsA): 115 ± 20.5 µM

LDSIRIIVIRRI [phage H9]
Inhibition of adhesion of strain WU2 to A549 cells [1, 8]: inhibited

LPADWATTLMVCSSK [scrambled peptide]
Inhibition of adhesion of S. pneumoniae to A549 cells [2]: No significant inhibition

SDGGVPV [Eps 1]
Bacterial load in the lungs, 3 h post inoculation (S. pneumoniae strain WU2; [9]): significant reduction
Bacterial load in the nasopharynx, 3 h post inoculation (S. pneumoniae strain WU2; [9]): significant reduction
Bacterial load in the lungs, 48 h post inoculation (S. pneumoniae strain WU2; [10]): significant reduction
Bacterial load in the nasopharynx, 48 h post inoculation (S. pneumoniae strain WU2; [10]): significant reduction
Inhibition of adhesion of strain 3.8DW to A549 cells [3]: significantly inhibited
Inhibition of adhesion of strain WU2 to A549 cells [1, 11]: significantly inhibited
Inhibition of adhesion of strain D39 to A549 cells [4]: significantly inhibited
Inhibition of adhesion of strain WU2 to Detroit 562 cells [5]: significant inhibition
Inhibition of adhesion of strain R6 to A549 cells [6]: significantly inhibited

TEQVSDQKNAPA [MMRN1]
Inhibition of adhesion of strain 3.8DW to A549 cells [3]: significant inhibition
Inhibition of adhesion of strain WU2 to A549 cells [1, 11]: significant inhibition

TXQVSNHKNHTN [phage E6]
Inhibition of adhesion of strain WU2 to A549 cells [1, 8]: inhibited

VLVKNDARRTRS [BMPER]
Kd (rPtsA): 21 ± 5.49 µM

VVVSDATRVRVA [Col VII]
Inhibition of adhesion of strain 3.8DW to A549 cells [3]: significant inhibition
Inhibition of adhesion of strain WU2 to A549 cells [1, 11]: significant inhibition

WECKANGRPKPTY [Contactin 4-derived peptide, reference compound]
Kd (affinity of rPtsA binding to peptide) (rPtsA; MST, Monolith NT.115, 335 nM NT-495-labeled rPtsA, 16 serial dilutions of peptide ~90 nM–3.175 mM, fit by NTP program, triplicate): a fit could not be generated

VLVKNDARRTRS [BMPER-derived peptide]
Kd [7]: 21 µM

DGGVPML [PCDH19-derived peptide]
Kd [7]: 58 µM

TEQVSDQKNAPA [MMRN1-derived peptide]
Kd [7]: 391 µM

SDGGVPV [Eps 1-derived peptide]
Kd [7]: 43.9 µM

DQVARIPVIRRV [Int β4-derived peptide]
Kd [7]: 115 µM

— article PMC4798226, “Streptococcus pneumoniae Cell-Wall-Localized Phosphoenolpyruvate Protein Phosphotransferase Can Function as an Adhesin: Identification of Its Host Target Molecules and Evaluation of Its Potential as a Vaccine” (PLoS ONE, 2016)
